According to US5457092A, “Methods of promoting bone growth in mammals comprising administration of modified parathyroid hormone” (Gesellschaft fur Biotechnologische Forschung mbH (GBF), priority 1987, dated 1995):

What was measured:
[1] = test system: chondrocytes from sterna of 16-day-old embryonic chicks; assay: Stimulation of DNA synthesis in chondrocytes by PTH fragments (Table 1); format: cell-based, chick; conditions: for [^3 H]thymidine incorporation: 4 h, control 139 ± 6; for E/C: stimulated / non-induced control cells
Experimental: Chondrocytes were isolated from sterna of 16-day-old embryonic chicks according to J. Biol. Chem., 261 (1986) 7997-8001 (10; Yasui et al.) with some modifications. Collagenase was dissolved in Hanks' balanced salt solution (0.4 mM Na2 HPO4, 140 mN NaCl, 5.3 mM KCl, 0.4 mM MgSO4, 1.3 mM CaCl2, 0.4 mM KH2 PO4, 0.5 mM MglC2, 5 mM glucose, 0.05% gentamicin) at a concentration of 286 units/ml. Sterna were treated repeatedly for 30 min with collagenase solution at 37° C. Cells first released by this procedure were discarded because of their very poor responsiveness towards PTH. The collagenase treatment was subsequently repeated leading to a highly homogenous cell population of chondrocytes. The cells obtained by a second collagenase treatment were collected by centrifugation (1000 rpm, 10 min), washed twice with medium (Dulbecco's modified Eagle's medium, GIBCO, supplemented with NaHCO3 (45 mM), glutamine (2 mM), penicillin G/streptomycin (65 mg/1 and 100 mg/l, respectively), Hepes (10 mM, pH 7.2), and FCS (10% v/v) and counted.
The DNA synthesis rate was assayed in monolayer culture by the incorporation of ]^3 H]thymidine into perchloric acid-precipitable material. […] After 17 h, the medium was replaced by 200 μl of serum-free medium. After 4 days, chondrocytes were incubated for 4 h with the appropriate effector and 1μ Ci of [^3 H]thymidine. Subsequently, medium was removed and the cells were washed twice with 200 μl of phosphate-buffered saline (PBS: 137 mM NaCl, 2.7 mN KCl, 1.5 mM KH2 PO4, 0.8 mN Na2 HPO4, pH 7.0). Then cells were lysed by 100 μl of 2% (v/v) Nonidet P- 40 and 2% (w/v) sodium dodecyl sulfate treatment and the perchloric acid-insoluble material was precipitated by adding an equal volume of ice-cold 2% (w/v) perchloric acid in the presence of 1% herring sperm DNA as carrier. After storage for 10 min at -20° C., the precipitated material of each well was transferred to glass fiber filters with a Scatron--As semiautomatic cell harvester. Filters were dried at 80° C. for 20 min, transferred into scintillation vials, and 2 ml of scintillation mixture (scintillator 299; United Technology Pachard) were added. Radioactivity of the samples was determined with a β counter (Minimax; United Technology Pachard). Each test consisted of 5 up to 10 identically treated wells and was repeated at least twice with freshly prepared chondrocytes.
The incorporation of [^3 H]thymidine by non-induced control cells and by stimulated cells is shown by C and E, respectively. The results shown mean ±S.E. for n parallel cell cultures.

[2] = test system: osteoblast enriched rat embryo calvaria cell cultures; assay: Cyclic AMP production in rat embryo calvaria cell cultures; format: cell-based; conditions: 100 nM; 15 min; control 29 ± 2.9 pmol/mg of protein
Experimental: (§1) FIG. 10 is a graphical representation showing the dose dependent stimulation by bPTH (1-84) of osteoblast enriched rat embryo calvaria cell cultures. Experimental details for the determination of cyclic AMP (.quadrature.) (15 min after stimulation) and incorporation of [^3 H]thymidine into DNA ( ) and CK ( ) specific activity (24 h after stimulation) are given below. The results are means ±S.E.M., N≥5. In several cases the S.E.M. was less than the size of the symbol. Control values were: cyclic AMP, 25±5 pmol/mg of protein; DNA, 240±30 c.p.m./μg of DNA; CK, 200±20 nmol/min per mg of protein. Statistical significance of differences between treated and corresponding control groups by Student's T test: *P<0.05; **P<0.01.
(§2) Rat calvaria cultures were treated with fragments of PTH derived from the central portion of the molecule.

[3] = test system: osteoblast enriched rat embryo calvaria cell cultures; assay: CK specific activity in rat embryo calvaria cell cultures; format: cell-based; conditions: 100 nM; 24 h; control 457 ± 46 nmol/min per mg of protein
Experimental: as §1, §2

[4] = test system: osteoblast enriched rat embryo calvaria cell cultures; assay: DNA synthesis ([3H]thymidine incorporation) in rat embryo calvaria cell cultures; format: cell-based
Experimental: as §1

[5] = test system: ROS 17/2.8 osteoblast-like cells; assay: Cyclic AMP production in ROS 17/2.8 osteoblast-like cells; format: cell-based, rat; conditions: 400 nM; control 29 ± 5.2 pmol/mg of protein
Experimental: When cultures of the widely used model for osteoblasts, the osteoblast-likeclone of rat osteosarcoma, ROS 17/2.8 (Endocrinology (Baltimore), 107 (1980) 1494-1503=12; Majeska et al.), were incubated with full-length PTH and PTH fragments (Table 4), cyclic AMP production was stimulated only by bPTH(1-84) and hPTH(1-34), whereas hPTH(25-39), hPTH(27-48), hPTH(28-48) and hPTH(34-47) were ineffective.

[6] = test system: ROS 17/2.8 osteoblast-like cells; assay: CK specific activity in ROS 17/2.8 osteoblast-like cells; format: cell-based, rat; conditions: 400 nM; control 698 ± 70 nmol/min per mg of protein
[7] = test system: ROS 17/2.8 osteoblast-like cells; assay: DNA synthesis in ROS 17/2.8 osteoblast-like cells; format: cell-based, rat; conditions: 400 nM; control 392 ± 58 c.p.m./μg of DNA

Question: For “hPTH(28-47): PTH fragment 28-47, human source (LQDVHNFVALGAPLAPRDAG; Parathyroid hormone; UniProt P01270 59-78, looked up, fragment)”, which “[^3 H]thymidine incorporation” value ([1]; 4.5 × 10^-5 mol/l) is on record?
Answer: Its value is 276 ± 36 cpm.

Question: And the E/C ([1]; 4.5 × 10^-5 mol/l)?
Answer: Its E/C is 1.99.

Question: And the “[^3 H]thymidine incorporation” value ([1]; 4.5 × 10^-6 mol/l)?
Answer: Its value is 202 ± 17 cpm.

Question: And the E/C ([1]; 4.5 × 10^-6 mol/l)?
Answer: The E/C was 1.45.

Question: And the “[^3 H]thymidine incorporation” value ([1]; 4.5 × 10^-7 mol/l)?
Answer: The value was 205 ± 22 cpm.

Question: And the E/C ([1]; 4.5 × 10^-7 mol/l)?
Answer: Its E/C is 1.47.

Question: What about the “[^3 H]thymidine incorporation” value ([1]; 4.5 × 10^-8 mol/l) of the same substance?
Answer: Its value is 196 ± 25 cpm.

Question: And the E/C ([1]; 4.5 × 10^-8 mol/l)?
Answer: The E/C was 1.41.

Question: What about the “Cyclic AMP concentration, effect of fragment (experimental value/control value)” value [2] of the same substance?
Answer: The value was 0.52 ± 0.39.

Question: And the “CK specific activity, effect of fragment (experimental value/control value)” value [3]?
Answer: The value was 2.18 ± 0.12.

Question: What about the “stimulation of DNA synthesis (in words)” value [4] of the same substance?
Answer: Its value is “less”.

Question: And the “[3H)Thymidine incorporation, effect of fragment (experimental value/control value)” value ([4]; 100 nM, 24 h, control 624 ± 73 c.p.m./μg of DNA)?
Answer: Its value is 2.11 ± 0.09.

Question: And the “Cyclic AMP, effect of fragment (experimental value/control value)” value [5]?
Answer: The value was 1.03 ± 0.16.

Question: And the “CK specific activity, effect of fragment (experimental value/control value)” value [6]?
Answer: The value was 1.66 ± 0.11.

Question: What about the “[^3 H]Thymidine incorporation, effect of fragment (experimental value/control value)” value [7] of the same substance?
Answer: The value was 1.44 ± 0.11.
